How the values were obtained:
[1] = molecular target: T1, rat α3β4 nicotinic acetylcholine receptor (nAChR) (Rattus norvegicus, UniProt P04757+P12392); experiment: cell-based
T1 construct: expressed in transfected cells; host or cells: HEK 293 (ATCC CRL1573), transient, Lipofectamine 2000

Sprague Dawley rats = experiment: Modified Irwin test, pilot dose finding study, female rats; type: in vivo, rat; settings: single oral dose 30-800 mg/kg
Experimental: Under the conditions of this study, the no-observed-effect level (NOEL) and no-observed-adverse-effect level (NOAEL) were considered to be 90 mg/kg and 400 mg/kg, respectively.

Pharmacokinetics in rats = type: in vivo, rat; settings: 60 mg/kg
Experimental: 18-MC is rapidly absorbed and distributed into the brain and fat tissues in rats dosed with 40 mg/kg p.o. or i.p. The estimated volume of distribution is 8 L/kg. 18-MC levels in fat were 4.2 μM and 2.5 μM at 2 hours and 24 hours, respectively. […] On oral administration, it appears that the major metabolites are either M4 or M5, depending on the animal species tested. M4 and M5 are the primary circulating drug species because they are present at proportions greater than 18-MC. […] In the animal species tested its half-life is less than 2 hours at lower doses. At high doses a long elimination phase is evident (ranging from 9 to 20 hours in rats). 18-MC is highly protein bound (95-98%).

cynomolgus monkeys = experiment: 14-day nasogastric gavage GLP toxicity study in cynomolgus monkeys; type: in vivo, cynomolgus monkey; settings: for Bone marrow, femur: Depletion, mixed; number with observation / Liver: Hypertrophy, hepatocellular, panlobular; number with observation / Thymus: Depletion, lymphoid, cortex; number with observation: 3 examined
From the text: Assessments of neurobehavioral effects and general toxicity were based on mortality, functional observational battery (FOB) evaluations, clinical observations, body weight, and body temperature; ophthalmoscopic, electrocardiographic examinations; and anatomic and clinical pathology. The anatomical pathology evaluations included histopathology of a full list of tissues from all animals and a comprehensive evaluation of the central nervous system (including selected peripheral nerves) utilizing whole body perfusion and special stains. Bone marrow smears from all animals were evaluated microscopically. Complete differentials and myeloid-erythroid (ME) ratios were performed. Toxicokinetic assessment was conducted for the test article and metabolites.

T1 sequence (P04757 26-499): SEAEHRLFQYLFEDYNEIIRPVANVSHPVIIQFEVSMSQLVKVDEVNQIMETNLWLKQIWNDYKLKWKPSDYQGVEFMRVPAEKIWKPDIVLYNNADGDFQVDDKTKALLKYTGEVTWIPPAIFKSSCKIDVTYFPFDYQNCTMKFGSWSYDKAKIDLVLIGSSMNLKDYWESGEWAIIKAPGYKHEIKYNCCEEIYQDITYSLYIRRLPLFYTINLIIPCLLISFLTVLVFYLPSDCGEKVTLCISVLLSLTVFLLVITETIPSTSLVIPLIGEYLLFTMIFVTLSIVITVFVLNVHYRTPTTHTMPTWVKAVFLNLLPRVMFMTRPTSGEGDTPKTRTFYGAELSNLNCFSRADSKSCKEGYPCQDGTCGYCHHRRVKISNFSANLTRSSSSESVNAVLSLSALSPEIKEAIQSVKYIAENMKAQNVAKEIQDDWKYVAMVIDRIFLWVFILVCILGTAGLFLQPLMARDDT
T1 sequence (P12392 21-495): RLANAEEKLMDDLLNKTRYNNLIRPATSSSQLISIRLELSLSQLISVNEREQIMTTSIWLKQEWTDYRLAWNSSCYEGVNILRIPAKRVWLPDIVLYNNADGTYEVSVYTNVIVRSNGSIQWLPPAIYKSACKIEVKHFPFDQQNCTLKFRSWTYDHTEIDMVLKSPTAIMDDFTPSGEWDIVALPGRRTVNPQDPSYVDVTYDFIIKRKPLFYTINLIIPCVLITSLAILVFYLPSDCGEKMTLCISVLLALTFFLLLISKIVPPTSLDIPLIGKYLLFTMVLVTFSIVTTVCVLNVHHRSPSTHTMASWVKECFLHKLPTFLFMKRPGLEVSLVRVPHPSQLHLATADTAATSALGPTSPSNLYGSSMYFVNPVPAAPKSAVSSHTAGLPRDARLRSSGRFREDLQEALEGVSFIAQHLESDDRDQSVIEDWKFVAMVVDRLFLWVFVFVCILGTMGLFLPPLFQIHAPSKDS

COCCC1CC2CN3CCc4c([nH]c5ccccc45)C(C(=O)OC)(C2)C13.Cl (stereo not shown) [18-MC HCl, 18-Methoxycoronaridine hydrochloride]
Max Inhibition 20-30 μM [1]: 98 ± 1%
Persistent Inhibition at 1 sec [1]: 88 ± 3%
no-observed-adverse-effect level (NOAEL) (Sprague Dawley rats): 400 mg/kg
no-observed-effect level (NOEL) (Sprague Dawley rats): 90 mg/kg
oral bioavailability (Pharmacokinetics in rats): about 8%
HED of well tolerated dose (cynomolgus monkeys; 50 mg/kg/day): 16 mg/kg/day
Bone marrow, femur: Depletion, mixed, mild; number with observation (cynomolgus monkeys; 50 mg/kg/day F): 0
Bone marrow, femur: Depletion, mixed, minimal; number with observation (cynomolgus monkeys; 50 mg/kg/day F): 0
Bone marrow, femur: Depletion, mixed, moderate; number with observation (cynomolgus monkeys; 50 mg/kg/day F): 0
Bone marrow, rib: Depletion, mixed, mild; number with observation (cynomolgus monkeys; 50 mg/kg/day F): 0
Bone marrow, rib: Depletion, mixed, minimal; number with observation (cynomolgus monkeys; 50 mg/kg/day F): 0
Bone marrow, rib: Depletion, mixed, moderate; number with observation (cynomolgus monkeys; 50 mg/kg/day F): 0
Bone marrow, rib: Depletion, mixed; number with observation (cynomolgus monkeys; 50 mg/kg/day F): 0
Bone marrow, sternum: Depletion, mixed, mild; number with observation (cynomolgus monkeys; 50 mg/kg/day F): 0
Bone marrow, sternum: Depletion, mixed, minimal; number with observation (cynomolgus monkeys; 50 mg/kg/day F): 0
Bone marrow, sternum: Depletion, mixed, moderate; number with observation (cynomolgus monkeys; 50 mg/kg/day F): 0
Bone marrow, sternum: Depletion, mixed; number with observation (cynomolgus monkeys; 50 mg/kg/day F): 0
Liver: Hypertrophy, hepatocellular, panlobular, mild; number with observation (cynomolgus monkeys; 50 mg/kg/day F): 3
Liver: Hypertrophy, hepatocellular, panlobular, minimal; number with observation (cynomolgus monkeys; 50 mg/kg/day F): 0
Thymus: Depletion lymphoid, generalized, mild; number with observation (cynomolgus monkeys; 50 mg/kg/day F): 1
Thymus: Depletion lymphoid, generalized, moderate; number with observation (cynomolgus monkeys; 50 mg/kg/day F): 0
Thymus: Depletion lymphoid, generalized; number with observation (cynomolgus monkeys; 50 mg/kg/day F): 1
Thymus: Depletion, lymphoid, cortex, mild; number with observation (cynomolgus monkeys; 50 mg/kg/day F): 0
Thymus: Depletion, lymphoid, cortex, minimal; number with observation (cynomolgus monkeys; 50 mg/kg/day F): 2
Thymus: Depletion, lymphoid, cortex, moderate; number with observation (cynomolgus monkeys; 50 mg/kg/day F): 0
mean cumulative body gain (Days 1-14) (cynomolgus monkeys; 50 mg/kg/day F): -0.08 kg
Bone marrow, femur: Depletion, mixed; number with observation (cynomolgus monkeys; 50 mg/kg/day F): 0
Liver: Hypertrophy, hepatocellular, panlobular; number with observation (cynomolgus monkeys; 50 mg/kg/day F): 3
Thymus: Depletion, lymphoid, cortex; number with observation (cynomolgus monkeys; 50 mg/kg/day F): 2
Bone marrow, femur: Depletion, mixed, mild; number with observation (cynomolgus monkeys; 50 mg/kg/day M): 0
Bone marrow, femur: Depletion, mixed, minimal; number with observation (cynomolgus monkeys; 50 mg/kg/day M): 0
Bone marrow, femur: Depletion, mixed, moderate; number with observation (cynomolgus monkeys; 50 mg/kg/day M): 0
Bone marrow, rib: Depletion, mixed, mild; number with observation (cynomolgus monkeys; 50 mg/kg/day M): 0
Bone marrow, rib: Depletion, mixed, minimal; number with observation (cynomolgus monkeys; 50 mg/kg/day M): 0
Bone marrow, rib: Depletion, mixed, moderate; number with observation (cynomolgus monkeys; 50 mg/kg/day M): 0
Bone marrow, rib: Depletion, mixed; number with observation (cynomolgus monkeys; 50 mg/kg/day M): 0
Bone marrow, sternum: Depletion, mixed, mild; number with observation (cynomolgus monkeys; 50 mg/kg/day M): 0
Bone marrow, sternum: Depletion, mixed, minimal; number with observation (cynomolgus monkeys; 50 mg/kg/day M): 0
Bone marrow, sternum: Depletion, mixed, moderate; number with observation (cynomolgus monkeys; 50 mg/kg/day M): 0
Bone marrow, sternum: Depletion, mixed; number with observation (cynomolgus monkeys; 50 mg/kg/day M): 0
Liver: Hypertrophy, hepatocellular, panlobular, mild; number with observation (cynomolgus monkeys; 50 mg/kg/day M): 0
Liver: Hypertrophy, hepatocellular, panlobular, minimal; number with observation (cynomolgus monkeys; 50 mg/kg/day M): 0
Thymus: Depletion lymphoid, generalized, mild; number with observation (cynomolgus monkeys; 50 mg/kg/day M): 0
Thymus: Depletion lymphoid, generalized, moderate; number with observation (cynomolgus monkeys; 50 mg/kg/day M): 0
Thymus: Depletion lymphoid, generalized; number with observation (cynomolgus monkeys; 50 mg/kg/day M): 0
Thymus: Depletion, lymphoid, cortex, mild; number with observation (cynomolgus monkeys; 50 mg/kg/day M): 0
Thymus: Depletion, lymphoid, cortex, minimal; number with observation (cynomolgus monkeys; 50 mg/kg/day M): 2
Thymus: Depletion, lymphoid, cortex, moderate; number with observation (cynomolgus monkeys; 50 mg/kg/day M): 0
mean cumulative body gain (Days 1-14) (cynomolgus monkeys; 50 mg/kg/day M): -0.22 kg
Bone marrow, femur: Depletion, mixed; number with observation (cynomolgus monkeys; 50 mg/kg/day M): 0
Liver: Hypertrophy, hepatocellular, panlobular; number with observation (cynomolgus monkeys; 50 mg/kg/day M): 0
Thymus: Depletion, lymphoid, cortex; number with observation (cynomolgus monkeys; 50 mg/kg/day M): 2
Bone marrow, femur: Depletion, mixed, mild; number with observation (cynomolgus monkeys; 150 mg/kg/day F): 0
Bone marrow, femur: Depletion, mixed, minimal; number with observation (cynomolgus monkeys; 150 mg/kg/day F): 0
Bone marrow, femur: Depletion, mixed, moderate; number with observation (cynomolgus monkeys; 150 mg/kg/day F): 0
Bone marrow, rib: Depletion, mixed, mild; number with observation (cynomolgus monkeys; 150 mg/kg/day F): 0
Bone marrow, rib: Depletion, mixed, minimal; number with observation (cynomolgus monkeys; 150 mg/kg/day F): 0
Bone marrow, rib: Depletion, mixed, moderate; number with observation (cynomolgus monkeys; 150 mg/kg/day F): 0
Bone marrow, rib: Depletion, mixed; number with observation (cynomolgus monkeys; 150 mg/kg/day F): 0
Bone marrow, sternum: Depletion, mixed, mild; number with observation (cynomolgus monkeys; 150 mg/kg/day F): 0
Bone marrow, sternum: Depletion, mixed, minimal; number with observation (cynomolgus monkeys; 150 mg/kg/day F): 0
Bone marrow, sternum: Depletion, mixed, moderate; number with observation (cynomolgus monkeys; 150 mg/kg/day F): 0
Bone marrow, sternum: Depletion, mixed; number with observation (cynomolgus monkeys; 150 mg/kg/day F): 0
Liver: Hypertrophy, hepatocellular, panlobular, mild; number with observation (cynomolgus monkeys; 150 mg/kg/day F): 2
Liver: Hypertrophy, hepatocellular, panlobular, minimal; number with observation (cynomolgus monkeys; 150 mg/kg/day F): 1
Thymus: Depletion lymphoid, generalized, mild; number with observation (cynomolgus monkeys; 150 mg/kg/day F): 0
Thymus: Depletion lymphoid, generalized, moderate; number with observation (cynomolgus monkeys; 150 mg/kg/day F): 0
Thymus: Depletion lymphoid, generalized; number with observation (cynomolgus monkeys; 150 mg/kg/day F): 0
Thymus: Depletion, lymphoid, cortex, mild; number with observation (cynomolgus monkeys; 150 mg/kg/day F): 2
Thymus: Depletion, lymphoid, cortex, minimal; number with observation (cynomolgus monkeys; 150 mg/kg/day F): 0
Thymus: Depletion, lymphoid, cortex, moderate; number with observation (cynomolgus monkeys; 150 mg/kg/day F): 1
mean cumulative body gain (Days 1-14) (cynomolgus monkeys; 150 mg/kg/day F): -0.12 kg
Bone marrow, femur: Depletion, mixed; number with observation (cynomolgus monkeys; 150 mg/kg/day F): 0
Liver: Hypertrophy, hepatocellular, panlobular; number with observation (cynomolgus monkeys; 150 mg/kg/day F): 3
Thymus: Depletion, lymphoid, cortex; number with observation (cynomolgus monkeys; 150 mg/kg/day F): 3
Bone marrow, femur: Depletion, mixed, mild; number with observation (cynomolgus monkeys; 150 mg/kg/day M): 0

Source: patent publication US20230201217A1 (priority 2019, published 2023)
